Data from patent US8063225B2, “Tricyclic compound derivatives useful in the treatment of neoplastic diseases, inflammatory disorders and immunomodulatory disorders” (Chembridge Corporation, priority 2006, dated 2011).

Columns and labels:
[1] = tested on: CHO (chinese hamster ovary); experiment: Cell proliferation inhibition, Cell Titer-Glo, CHO; type: cell-based; settings: Cricetulus griseus; cell proliferation assay, CHO cells
Protocol: (§1) IGF1R and other tyrosine kinase inhibitors can inhibit the proliferation of certain cancer cell lines indicating their possible therapeutic utility for treating the corresponding cancer types. Cancer cell lines of interest and control normal lines, including CHO, HEK293, BA/F3, MM1, H929, COLO205, PC3, DU145, MCF7, Panc1, ACHN, Hep G2, H460, K562, TT, U87-G, CAOV-3, SK-MEL5, Karpas 299, are plated in white, clear-bottomed 384-well cell culture plates at 2500-5000 cells per well and supplied with dilutions of tested compounds After a desired period of time (typically 3 days), the number of viable cells is quantitated by using Cell Titer-Glo Luminescent Cell Viability Assay (Promega), a cell proliferation assay system based on detection of total amount of ATP present as a measure of cell metabolic activity. The plated cells are mixed with the Cell Titer-Glo developing reagent and counted in a luminescence multiwell plate reader according to the standard manufacturer's protocol to generate IC50 curves for cell proliferation inhibition.
(§2) IGF1R and other tyrosine kinase inhibitors can inhibit the proliferation of certain cancer cell lines indicating their possible therapeutic utility for treating the corresponding cancer types. Cancer cell lines of interest and control normal lines, including CHO, HEK293, BA/F3, COLO205, PC3, DU145, MCF7, Panc1, ACHN, Hep G2, H460, K562, TT, U87-MG, CAOV-3, SK-MEL5, Karpas 299 and human multiple myeloma cell lines H929, MM1s, MM1r, UTMC2, CPM2, KMS11, My5, KMS12PE, My7, JJN3, KMS18, U266, SKMM2, RPMI-8226 are plated in white, clear-bottomed 384-well cell culture plates at 2500-5000 cells per well and supplied with dilutions of tested compounds After a desired period of time (typically 3 days), the number of viable cells is quantitated by using Cell Titer-Glo Luminescent Cell Viability Assay (Promega), a cell proliferation assay system based on detection of total amount of ATP present as a measure of cell metabolic activity. The plated cells are mixed with the Cell Titer-Glo developing reagent and counted in a luminescence multiwell plate reader according to the standard manufacturer's protocol to generate IC50 curves for cell proliferation inhibition. Results are typically reported as percent of growth (% viability =(OD72h(compound)−ODday0))/(OD72h(no compound)−ODday0). Alternatively, viable cells are quantitated by using the conventional colorimetric MTT assay. The MTT assay is based on the cleavage of the yellow tetrazolium salt MTT to purple formazan crystal by metabolic active cells. The formazan is then solubilized, and the concentration determined by optical density at 570 nm. The cells plated and incubated with a compound as described above are supplemented with the solution of MTT and incubated for 2-3 hours. The growth medium is removed and dimethyl sulfoxide is added into each well to dissolve the formazan. The absorbance is measured on an ELISA plate reader with a test wavelength of 570 nm and a background subtraction wavelength of 630 nm to obtain sample signal (OD570-OD630). […] The results are reported in terms of IC50 value for a particular compound and a cell line in the standard 3-day proliferation assay using Cell Titer-Glo. […] The results are reported in terms of IC50 value for a particular compound and a cell line in the standard 3-day proliferation assay using MTT assay.

H929 (multiple myeloma) = experiment: Cell proliferation inhibition, Cell Titer-Glo, H929; type: cell-based; settings: Homo sapiens, NCI-H929; cell proliferation assay, H929 cells
Protocol: as §1, §2

InsR = target: T1, InsR (Homo sapiens, UniProt P06213); experiment: Tyrosine kinase assay (Kinase-Glo or AlphaScreen), InsR; settings: biochemical tyrosine kinase assay
T1 construct: 6×His- or GST-tagged kinase domain fragments of the corresponding RTKs expressed in baculovirus system; host or cells: baculovirus system
T1 sequence (P06213 1023-1298 limits assumed, species assumed): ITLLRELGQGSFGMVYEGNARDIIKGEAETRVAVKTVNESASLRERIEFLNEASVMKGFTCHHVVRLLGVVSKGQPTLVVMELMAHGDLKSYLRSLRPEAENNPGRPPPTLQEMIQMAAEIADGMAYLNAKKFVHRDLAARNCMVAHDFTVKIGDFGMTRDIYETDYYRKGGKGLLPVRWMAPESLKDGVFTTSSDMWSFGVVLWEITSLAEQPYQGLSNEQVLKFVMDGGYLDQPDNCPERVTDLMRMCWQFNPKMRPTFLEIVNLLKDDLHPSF
In short: (§3)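 Baculovirus-expressed His- or GST-tagged kinase domains with poly(Glu-Tyr) substrate, 10 μM ATP, pH 7.5 Tris with MgCl2/MnCl2. Kinase-Glo: 60 min at 37 °C, residual ATP by luminescence; AlphaScreen: 30 min at RT, then anti-phosphotyrosine beads 60 min. Eight concentrations, 1 nM to 20 μM; IC50 by nonlinear regression.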

Alk = target: T2, Alk (Homo sapiens, UniProt Q9UM73); experiment: Tyrosine kinase assay (Kinase-Glo or AlphaScreen), Alk; settings: biochemical tyrosine kinase assay
T2 construct: 6×His- or GST-tagged kinase domain fragments of the corresponding RTKs expressed in baculovirus system; host or cells: baculovirus system
T2 sequence (Q9UM73 1116-1392 limits assumed, species assumed): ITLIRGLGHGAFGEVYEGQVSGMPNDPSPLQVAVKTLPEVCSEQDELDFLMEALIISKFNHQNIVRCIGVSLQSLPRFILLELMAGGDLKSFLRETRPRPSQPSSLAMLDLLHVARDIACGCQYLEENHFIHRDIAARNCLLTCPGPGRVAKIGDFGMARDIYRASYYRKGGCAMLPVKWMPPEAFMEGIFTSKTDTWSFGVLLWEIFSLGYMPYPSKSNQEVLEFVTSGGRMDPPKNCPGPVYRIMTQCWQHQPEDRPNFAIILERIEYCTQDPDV
In short: as §3

Jak2 = target: T3, Jak2 (Homo sapiens, UniProt O60674); experiment: Tyrosine kinase assay (Kinase-Glo or AlphaScreen), Jak2; settings: biochemical tyrosine kinase assay
T3 construct: 6×His- or GST-tagged kinase domain fragments of the corresponding RTKs expressed in baculovirus system; host or cells: baculovirus system
T3 sequence (O60674 849-1124 limits assumed, species assumed): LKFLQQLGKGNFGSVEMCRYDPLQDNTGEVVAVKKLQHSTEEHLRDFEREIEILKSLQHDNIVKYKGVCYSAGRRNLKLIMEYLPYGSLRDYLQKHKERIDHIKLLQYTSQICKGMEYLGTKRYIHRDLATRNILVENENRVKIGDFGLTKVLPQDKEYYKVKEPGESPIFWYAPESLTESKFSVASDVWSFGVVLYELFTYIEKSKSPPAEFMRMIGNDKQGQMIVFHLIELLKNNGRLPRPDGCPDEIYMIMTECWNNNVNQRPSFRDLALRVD
In short: as §3

IGF1R tyrosine kinase = target: T4, IGF1R tyrosine kinase (Homo sapiens, UniProt P08069); experiment: IGF1R tyrosine kinase assay (Kinase-Glo ATP depletion or PT66/PT100 AlphaScreen); settings: biochemical tyrosine kinase assay
T4 construct: 6×His- or GST-tagged kinase domain fragments of the corresponding RTKs expressed in baculovirus system; host or cells: baculovirus system
T4 sequence (P08069 999-1274 limits assumed): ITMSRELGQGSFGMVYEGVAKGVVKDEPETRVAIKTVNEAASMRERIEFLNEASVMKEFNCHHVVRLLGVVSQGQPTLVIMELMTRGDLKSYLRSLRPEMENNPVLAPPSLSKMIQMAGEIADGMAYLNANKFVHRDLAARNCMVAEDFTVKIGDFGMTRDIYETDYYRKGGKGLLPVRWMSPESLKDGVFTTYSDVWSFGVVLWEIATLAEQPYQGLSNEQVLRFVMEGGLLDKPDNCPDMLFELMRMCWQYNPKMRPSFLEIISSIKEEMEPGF
In short: as §3

IGF1 receptor = target: T5, IGF1 receptor (Homo sapiens, UniProt P08069); experiment: ELISA-based assay of IGF1 receptor autophosphorylation inhibition in cells; type: cell-based; settings: IGF1R phosphorylation inhibition in MCF7 cells
T5 construct: MCF7 human breast cancer cells expressing IGF1 receptor; endogenous in cells; host or cells: MCF7 human breast cancer cells
T5 sequence (P08069 741-1367 limits assumed): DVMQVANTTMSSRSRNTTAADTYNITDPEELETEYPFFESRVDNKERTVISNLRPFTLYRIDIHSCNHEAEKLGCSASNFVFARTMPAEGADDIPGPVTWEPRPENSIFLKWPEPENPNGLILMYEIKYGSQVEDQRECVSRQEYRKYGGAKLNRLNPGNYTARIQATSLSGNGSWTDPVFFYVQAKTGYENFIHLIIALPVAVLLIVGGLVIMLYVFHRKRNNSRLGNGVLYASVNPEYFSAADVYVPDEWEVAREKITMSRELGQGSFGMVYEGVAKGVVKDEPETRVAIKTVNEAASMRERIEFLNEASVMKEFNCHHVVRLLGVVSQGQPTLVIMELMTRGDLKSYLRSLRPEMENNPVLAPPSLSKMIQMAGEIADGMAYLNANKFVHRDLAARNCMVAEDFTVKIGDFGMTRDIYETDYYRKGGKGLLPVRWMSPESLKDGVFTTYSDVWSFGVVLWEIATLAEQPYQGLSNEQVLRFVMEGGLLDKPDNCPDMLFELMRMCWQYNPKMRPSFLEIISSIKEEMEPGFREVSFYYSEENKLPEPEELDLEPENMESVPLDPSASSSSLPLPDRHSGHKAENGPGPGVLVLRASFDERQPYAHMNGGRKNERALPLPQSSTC
T5 sequence (P08069 31-736 partner limits assumed): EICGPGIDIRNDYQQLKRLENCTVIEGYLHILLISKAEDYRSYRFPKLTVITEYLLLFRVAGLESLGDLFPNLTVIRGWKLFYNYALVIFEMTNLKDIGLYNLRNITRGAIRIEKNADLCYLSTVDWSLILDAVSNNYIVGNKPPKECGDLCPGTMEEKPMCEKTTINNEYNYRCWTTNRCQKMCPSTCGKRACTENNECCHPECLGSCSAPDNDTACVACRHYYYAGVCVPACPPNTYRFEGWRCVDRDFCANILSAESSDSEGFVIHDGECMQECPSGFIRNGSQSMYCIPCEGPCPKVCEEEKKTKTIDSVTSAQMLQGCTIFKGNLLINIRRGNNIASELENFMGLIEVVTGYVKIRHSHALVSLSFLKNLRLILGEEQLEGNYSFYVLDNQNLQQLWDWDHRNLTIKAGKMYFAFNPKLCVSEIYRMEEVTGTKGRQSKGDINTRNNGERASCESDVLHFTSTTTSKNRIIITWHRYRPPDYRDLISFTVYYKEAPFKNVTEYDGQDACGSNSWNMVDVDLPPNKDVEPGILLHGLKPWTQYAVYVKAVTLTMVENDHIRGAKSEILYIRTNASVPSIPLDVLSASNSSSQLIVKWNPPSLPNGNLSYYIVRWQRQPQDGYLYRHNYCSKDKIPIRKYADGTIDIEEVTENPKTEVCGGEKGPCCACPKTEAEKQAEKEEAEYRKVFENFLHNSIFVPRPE
Protocol: In another embodiment, compounds that interact with the IGF1R kinase domain are tested in a cell-based assay system. In accordance with this embodiment, cells expressing a full-length IGF1 receptor or a fragment thereof containing the IGF1R kinase domain, are contacted with a candidate or a control compound and the ability of the compound to block tyrosine kinase activity of IGF1R within a cell is determined. This assay may be used to screen a single compound or a large library of candidate compounds. Typically, the cells or cell lines are of mammalian origin and they can express the IGF1 receptor, or functional IGF1R kinase domain fragment, endogenously or be genetically engineered to express the IGF1R, or functional fragment thereof. The ability of the candidate compound to inhibit IGF1R kinase activity can be determined by methods known to those skilled in the art. For example, the inhibition can be determined by ELISA-type assay or Western blot analysis with cell lysates or immunoprecipitated IGF1R receptor using various anti-IGF1R and anti-phosphotyrosine antibodies.
In general, cells expressing IGF1R are treated with modulators (i.e., inhibitors or activators) of IGF1R kinase activity and cell lysates are produced from these treated cells. IGF1Rs are isolated from the lysate by immunoprecipitation and analyzed for phosphotyrosine content. Alternatively, or in addition, cellular protein substrates phosphorylated by IGFR may be immunoprecipitated from the lysates and their degree of tyrosine phosphorylation determined.
MCF7 human breast cancer cells expressing IGF1 receptor or an engineered […] fibroblast cell line NIH 3T3 overexpressing full-length IGF1R are an exemplary cellular models in which to perform such assays. Such cells may be maintained in DMEM medium supplemented with 10% fetal bovine serum (FBS), 4% L-glutamine, 1% antibiotic solution (penicillin-Streptomycin) in a humidified atmosphere of 95% air and 5% CO2 at 37° C. Confluent cells in T175 cell culture flasks are incubated overnight with serum-free DMEM medium. After the serum starvation step, the cells are detached and split into a standard 96-well cell culture plate (one T175 flask per plate, 30 μl of cell suspension per plate well). Tested inhibitors from their 10 mM stock solutions in DMSO are subsequently added at various concentrations in serum-free DMEM medium for 1 hour incubation at 37° C. in CO2-incubator; total DMSO concentration in both treated and control wells is adjusted to 1%. Cells are then stimulated for 10 minutes with 100 nM IGF-1 added in 30 μl DMEM. After treatment, cells are lysed by addition of 30 μl of 4× lysis buffer (phosphate-buffered saline (PBS), 2% Triton-X100, 1 mM phenylmethylsulphonyl fluoride (PMSF) and 8 mM activated orthovanadate), mixing and incubation for 15 minute at room temperature. To prepare assay plates, 96-well ELISA Plates (Pierce Chemical, Reacti-bind plates) were coated by goat-anti-rabbit Fc antiserum by adding 0.25 μg antiserum per well in 0.2M sodium bicarbonate buffer per well and incubating overnight at 4° C. After incubation, the plate is washed three times by PBS with 0.02% Tween-20, supplied with 25 ng/50 μl per well of anti-IGF1R antibody (C-20, Santa Cruz Biotechnology) and incubated for several hours to overnight. Prior to the addition of the prepared cellular lysates, the antibody solution is aspirated, wells washed with PBS and supplied with 25 μl per well of Starting Block buffer (Pierce Chemical).
To measure tyrosine phosphorylation of the beta-subunits of the IGF1R, 25-50 μl of the lysates are transferred from the stimulation plate to the wells of the prepared assay plate and incubated overnight at 4° C. The wells are washed with PBS with 0.02% Tween-20, incubated with 50 μl of 1:3000 dilution of anti-phosphotyrosine 4G10-HRP antibody conjugate (Upstate Biotechnology) for 2 hours at room temperature and washed again. […]

Row | SMILES | IC50 (H929 (multiple myeloma)) [µM] | IC50 (InsR) [µM] | IC50 (Alk) [µM] | IC50 (Jak2) [µM] | IC50 (IGF1R tyrosine kinase) [µM] | IC50 (IGF1 receptor) [µM] | IC50 [1] [µM]
1 | CN1CCC(N2C(=O)c3cc4nc(-c5c(NCC(O)COc6ccc(C(C)(C)C)cc6)cc[nH]c5=O)[nH]c4cc3C2=O)CC1 (stereo not shown) [compound 14] | – | 0.5 to 5 | > 15 | 0.5 to 5 | 0.5 to 5 | 0.5 to 5 | –
2 | CN1CCCC1CCN1C(=O)c2cc3nc(-c4c(NC[C@@H](O)c5cccc(Cl)c5)cc[nH]c4=O)[nH]c3cc2C1=O (stereo partly shown) [compound 18] | – | 0.5 to 5 | 0.5 to 5 | 0.5 to 5 | < 0.5 | > 15 | –
3 | CN1CCN(CCCN2C(=O)c3cc4nc(-c5c(NC[C@@H](O)c6cccc(Cl)c6)cc[nH]c5=O)[nH]c4cc3C2=O)CC1 [compound 19] | – | 0.5 to 5 | 0.5 to 5 | 0.5 to 5 | < 0.5 | > 15 | –
4 | O=C1c2cc3nc(-c4c(NC[C@@H](O)c5cccc(Cl)c5)cc[nH]c4=O)[nH]c3cc2C(=O)N1CC1CCN(CCO)CC1 [compound 13] | – | < 0.5 | 0.5 to 5 | 0.5 to 5 | < 0.5 | 0.5 to 5 | –
5 | O=C1NC(=O)c2cc3[nH]c(-c4c(NC[C@@H](O)c5cccc(Cl)c5)cc[nH]c4=O)nc3cc21 [compound 11] | – | 5 to 15 | 5 to 15 | 5 to 15 | > 15 | 0.5 to 5 | –
6 | Cc1cc(OCC(O)CNc2cc[nH]c(=O)c2-c2nc3cc4c(cc3[nH]2)C(=O)N(C2CCN(C)CC2)C4=O)ccc1Cl (stereo not shown) [compound 10] | – | 0.5 to 5 | > 15 | 5 to 15 | 5 to 15 | > 15 | –
7 | O=C1c2cc3nc(-c4c(NC[C@@H](O)c5cccc(Cl)c5)cc[nH]c4=O)[nH]c3cc2C(=O)N1CCCN1CCOCC1 [compound 12] | – | > 15 | > 15 | > 15 | > 15 | 0.5 to 5 | –

Now from value to compound, other results behind:

Row | IC50 (H929 (multiple myeloma)) [µM] | IC50 (InsR) [µM] | IC50 (Alk) [µM] | IC50 (Jak2) [µM] | IC50 (IGF1R tyrosine kinase) [µM] | IC50 (IGF1 receptor) [µM] | SMILES | IC50 [1] [µM]
8 | > 15 | < 0.5 | 0.5 to 5 | < 0.5 | < 0.5 | – | CN1CCC(N2Cc3cc4nc(-c5c(NC[C@@H](O)COc6cc7c(cc6Cl)OCO7)cc[nH]c5=O)[nH]c4cc3C2=O)CC1 [compound 157] | > 15
9 | 5 to 15 | < 0.5 | 0.5 to 5 | < 0.5 | < 0.5 | – | CN1CCC(N2Cc3cc4nc(-c5c(NC[C@@H](O)COc6cc(F)cc(F)c6Cl)cc[nH]c5=O)[nH]c4cc3C2=O)CC1 [compound 152] | > 15
10 | – | 0.5 to 5 | 0.5 to 5 | 0.5 to 5 | 0.5 to 5 | > 15 | CN1CCC(N2C(=O)c3cc4nc(-c5c(NC[C@H](O)COc6ccc(F)cc6)cc[nH]c5=O)[nH]c4cc3C2=O)CC1 [compound 22] | –
11 | – | 0.5 to 5 | 0.5 to 5 | 0.5 to 5 | 0.5 to 5 | 5 to 15 | CN1CCC(N2C(=O)c3cc4nc(-c5c(NC[C@@H](O)COc6ccc(F)cc6)cc[nH]c5=O)[nH]c4cc3C2=O)CC1 [compound 21] | –
12 | 5 to 15 | < 0.5 | > 15 | < 0.5 | < 0.5 | – | CN1CCC(N2Cc3cc4nc(-c5c(NC[C@@H](O)COc6cccc(C(F)(F)F)c6Cl)cc[nH]c5=O)[nH]c4cc3C2=O)CC1 [compound 154] | > 15
13 | – | 0.5 to 5 | 0.5 to 5 | 0.5 to 5 | 0.5 to 5 | > 15 | CN1CCN(CCN2C(=O)c3cc4nc(-c5c(NC[C@@H](O)c6cccc(Cl)c6)cc[nH]c5=O)[nH]c4cc3C2=O)CC1 [compound 20] | –
14 | 5 to 15 | < 0.5 | 5 to 15 | < 0.5 | < 0.5 | – | COc1cccc(OC[C@H](O)CNc2cc[nH]c(=O)c2-c2nc3cc4c(cc3[nH]2)C(=O)N(C2CCN(C)CC2)C4)c1C [compound 159] | > 15
15 | – | 0.5 to 5 | 5 to 15 | 0.5 to 5 | 0.5 to 5 | 5 to 15 | CN1CCC(N2C(=O)c3cc4nc(-c5c(NCC(O)COc6ccccc6)cc[nH]c5=O)[nH]c4cc3C2=O)CC1 (stereo not shown) [compound 23] | –
16 | 5 to 15 | < 0.5 | 5 to 15 | < 0.5 | < 0.5 | – | CN1CCC(N2Cc3cc4nc(-c5c(NC[C@@H](O)COc6cc(C(F)(F)F)ccc6Cl)cc[nH]c5=O)[nH]c4cc3C2=O)CC1 [compound 151] | > 15
17 | 5 to 15 | < 0.5 | 0.5 to 5 | 0.5 to 5 | 0.5 to 5 | – | CN1CCC(N2Cc3cc4nc(-c5c(N[C@@H](CO)Cc6ccccc6)cc[nH]c5=O)[nH]c4cc3C2=O)CC1 [compound 160] | > 15
